According to ChEMBL document CHEMBL1134253, “HIV Rev peptides conjugated with peptide nucleic acids and their efficient binding to RRE RNA” (Bioorg Med Chem Lett, 2001):

Tests used:
[1] = tested on: Rev responsive element (RRE) RNA; assay: Ratio of the dissociation constant between Rev37-50 and the PNA-peptide; assay type: nucleic-acid assay
[2] = target: Rev responsive element (RRE) RNA; assay: Dissociation constant of compound with Rev-responsive element (RRE) IIB RNA was determined by the competition assay; assay type: nucleic-acid assay

| Structure (SMILES) | Ratio [1] | Kd [2] [nM] |
| --- | --- | --- |
| CC(=O)N(CCNC(=O)NCC(=O)O)CC(=O)N[C@H](C)C(=O)N[C@@H](CCCNC(=N)N)C(=O)N[C@@H](CCCNC(=N)N)C(=O)N[C@@H](CC(N)=O)C(=O)N[C@@H](CCCNC(=N)N)C(=O)N[C@@H](CCCNC(=N)N)C(=O)N[C@@H](CCCNC(=N)N)C(=O)N[C@@H](CCCNC(=N)N)C(=O)N[C@@H](Cc1c[nH]c2ccccc12)C(=O)N[C@@H](CCCNC(=N)N)C(=O)N[C@@H](CCC(=O)O)C(=O)N[C@@H](CCCNC(=N)N)C(=O)N[C@@H](CCC(N)=O)C(=O)N[C@H](CCCNC(=N)N)C(N)=O | 2 | 44 |
| C[C@H](NC(=O)CN(CCNC(=O)CN(CCNC(=O)CCC(=O)O)C(=O)Cn1cnc2c(=O)[nH]c(N)nc21)C(=O)Cn1ccc(N)nc1=O)C(=O)N[C@@H](CCCNC(=N)N)C(=O)N[C@@H](CCCNC(=N)N)C(=O)N[C@@H](CC(N)=O)C(=O)N[C@@H](CCCNC(=N)N)C(=O)N[C@@H](CCCNC(=N)N)C(=O)N[C@@H](CCCNC(=N)N)C(=O)N[C@@H](CCCNC(=N)N)C(=O)N[C@@H](Cc1c[nH]c2ccccc12)C(=O)N[C@@H](CCCNC(=N)N)C(=O)N[C@@H](CCC(=O)O)C(=O)N[C@@H](CCCNC(=N)N)C(=O)N[C@@H](CCC(N)=O)C(=O)N[C@H](CCCNC(=N)N)C(N)=O | 5.4 | 16 |
| C[C@H](NC(=O)CN(CCNC(=O)CN(CCNC(=O)CCC(=O)O)C(=O)Cn1cnc2c(N)ncnc21)C(=O)Cn1ccc(N)nc1=O)C(=O)N[C@@H](CCCNC(=N)N)C(=O)N[C@@H](CCCNC(=N)N)C(=O)N[C@@H](CC(N)=O)C(=O)N[C@@H](CCCNC(=N)N)C(=O)N[C@@H](CCCNC(=N)N)C(=O)N[C@@H](CCCNC(=N)N)C(=O)N[C@@H](CCCNC(=N)N)C(=O)N[C@@H](Cc1c[nH]c2ccccc12)C(=O)N[C@@H](CCCNC(=N)N)C(=O)N[C@@H](CCC(=O)O)C(=O)N[C@@H](CCCNC(=N)N)C(=O)N[C@@H](CCC(N)=O)C(=O)N[C@H](CCCNC(=N)N)C(N)=O | 3.1 | 28 |
| C[C@H](NC(=O)CN(CCNC(=O)CN(CCNC(=O)CN(CCNC(=O)CCC(=O)O)C(=O)Cn1cnc2c(N)ncnc21)C(=O)Cn1cnc2c(=O)[nH]c(N)nc21)C(=O)Cn1ccc(N)nc1=O)C(=O)N[C@@H](CCCNC(=N)N)C(=O)N[C@@H](CCCNC(=N)N)C(=O)N[C@@H](CC(N)=O)C(=O)N[C@@H](CCCNC(=N)N)C(=O)N[C@@H](CCCNC(=N)N)C(=O)N[C@@H](CCCNC(=N)N)C(=O)N[C@@H](CCCNC(=N)N)C(=O)N[C@@H](Cc1c[nH]c2ccccc12)C(=O)N[C@@H](CCCNC(=N)N)C(=O)N[C@@H](CCC(=O)O)C(=O)N[C@@H](CCCNC(=N)N)C(=O)N[C@@H](CCC(N)=O)C(=O)N[C@H](CCCNC(=N)N)C(N)=O | 5.7 | 15 |
| C[C@H](NC(=O)CN(CCNC(=O)CCC(=O)O)C(=O)Cn1ccc(N)nc1=O)C(=O)N[C@@H](CCCNC(=N)N)C(=O)N[C@@H](CCCNC(=N)N)C(=O)N[C@@H](CC(N)=O)C(=O)N[C@@H](CCCNC(=N)N)C(=O)N[C@@H](CCCNC(=N)N)C(=O)N[C@@H](CCCNC(=N)N)C(=O)N[C@@H](CCCNC(=N)N)C(=O)N[C@@H](Cc1c[nH]c2ccccc12)C(=O)N[C@@H](CCCNC(=N)N)C(=O)N[C@@H](CCC(=O)O)C(=O)N[C@@H](CCCNC(=N)N)C(=O)N[C@@H](CCC(N)=O)C(=O)N[C@H](CCCNC(=N)N)C(N)=O | 2.8 | 31 |
| C[C@H](NC(=O)CN(CCNC(=O)CN(CCNC(=O)CN(CCNC(=O)CCC(=O)O)C(=O)Cn1ccc(N)nc1=O)C(=O)Cn1cnc2c(=O)[nH]c(N)nc21)C(=O)Cn1ccc(N)nc1=O)C(=O)N[C@@H](CCCNC(=N)N)C(=O)N[C@@H](CCCNC(=N)N)C(=O)N[C@@H](CC(N)=O)C(=O)N[C@@H](CCCNC(=N)N)C(=O)N[C@@H](CCCNC(=N)N)C(=O)N[C@@H](CCCNC(=N)N)C(=O)N[C@@H](CCCNC(=N)N)C(=O)N[C@@H](Cc1c[nH]c2ccccc12)C(=O)N[C@@H](CCCNC(=N)N)C(=O)N[C@@H](CCC(=O)O)C(=O)N[C@@H](CCCNC(=N)N)C(=O)N[C@@H](CCC(N)=O)C(=O)N[C@H](CCCNC(=N)N)C(N)=O | 9 | 9.6 |
| C[C@H](NC(=O)CN(CCNC(=O)CCC(=O)O)C(=O)Cn1cnc2c(=O)[nH]c(N)nc21)C(=O)N[C@@H](CCCNC(=N)N)C(=O)N[C@@H](CCCNC(=N)N)C(=O)N[C@@H](CC(N)=O)C(=O)N[C@@H](CCCNC(=N)N)C(=O)N[C@@H](CCCNC(=N)N)C(=O)N[C@@H](CCCNC(=N)N)C(=O)N[C@@H](CCCNC(=N)N)C(=O)N[C@@H](Cc1c[nH]c2ccccc12)C(=O)N[C@@H](CCCNC(=N)N)C(=O)N[C@@H](CCC(=O)O)C(=O)N[C@@H](CCCNC(=N)N)C(=O)N[C@@H](CCC(N)=O)C(=O)N[C@H](CCCNC(=N)N)C(N)=O | 2.9 | 30 |
| C[C@H](NC(=O)CN(CCNC(=O)CN(CCNC(=O)CCC(=O)O)C(=O)Cn1ccc(N)nc1=O)C(=O)Cn1ccc(N)nc1=O)C(=O)N[C@@H](CCCNC(=N)N)C(=O)N[C@@H](CCCNC(=N)N)C(=O)N[C@@H](CC(N)=O)C(=O)N[C@@H](CCCNC(=N)N)C(=O)N[C@@H](CCCNC(=N)N)C(=O)N[C@@H](CCCNC(=N)N)C(=O)N[C@@H](CCCNC(=N)N)C(=O)N[C@@H](Cc1c[nH]c2ccccc12)C(=O)N[C@@H](CCCNC(=N)N)C(=O)N[C@@H](CCC(=O)O)C(=O)N[C@@H](CCCNC(=N)N)C(=O)N[C@@H](CCC(N)=O)C(=O)N[C@H](CCCNC(=N)N)C(N)=O | 3.1 | 28 |
| Cc1cn(CC(=O)N(CCNC(=O)CCC(=O)O)CC(=O)NCCN(CC(=O)NCCN(CC(=O)NCCN(CC(=O)NCCN(CC(=O)N[C@@H](C)C(=O)N[C@@H](CCCNC(=N)N)C(=O)N[C@@H](CCCNC(=N)N)C(=O)N[C@@H](CC(N)=O)C(=O)N[C@@H](CCCNC(=N)N)C(=O)N[C@@H](CCCNC(=N)N)C(=O)N[C@@H](CCCNC(=N)N)C(=O)N[C@@H](CCCNC(=N)N)C(=O)N[C@@H](Cc2c[nH]c3ccccc23)C(=O)N[C@@H](CCCNC(=N)N)C(=O)N[C@@H](CCC(=O)O)C(=O)N[C@@H](CCCNC(=N)N)C(=O)N[C@@H](CCC(N)=O)C(=O)N[C@H](CCCNC(=N)N)C(N)=O)C(=O)Cn2ccc(N)nc2=O)C(=O)Cn2cnc3c(=O)[nH]c(N)nc32)C(=O)Cn2ccc(N)nc2=O)C(=O)Cn2cnc3c(=O)[nH]c(N)nc32)c(=O)[nH]c1=O | 16 | 5.4 |
| C[C@H](NC(=O)CCC(=O)O)C(=O)N[C@@H](CCCNC(=N)N)C(=O)N[C@@H](CCCNC(=N)N)C(=O)N[C@@H](CC(N)=O)C(=O)N[C@@H](CCCNC(=N)N)C(=O)N[C@@H](CCCNC(=N)N)C(=O)N[C@@H](CCCNC(=N)N)C(=O)N[C@@H](CCCNC(=N)N)C(=O)N[C@@H](Cc1c[nH]c2ccccc12)C(=O)N[C@@H](CCCNC(=N)N)C(=O)N[C@@H](CCC(=O)O)C(=O)N[C@@H](CCCNC(=N)N)C(=O)N[C@@H](CCC(N)=O)C(=O)N[C@H](CCCNC(=N)N)C(N)=O | 1 | 86 |
| CC(=O)NCCN(CC(=O)NCCN(CC(=O)NCCN(CC(=O)NCCN(CC(=O)NCCN(CC(=O)N[C@@H](CCCCN)C(=O)CN)C(=O)Cn1ccc(N)nc1=O)C(=O)Cn1cnc2c(O)nc(N)nc21)C(=O)Cn1ccc(N)nc1=O)C(=O)Cn1cnc2c(O)nc(N)nc21)C(=O)Cn1cc(C)c(=O)[nH]c1=O | – | > 100000 |
